Reference: PubChem BioAssay (NCI)
Values joined by “and” are separate entries in the source; they are usually repeats but may differ in a detail not shown here. Equal entries are not always repeated.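 Following 48 hours of exposure in 96-well plates, responses at five concentrations were used to interpolate endpoints linearly. The concentration for 50% growth inhibition is given as GI50. The concentration for full growth arrest is given as TGI.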

Legend:
Assay in all cases: NCI anticancer screen, dose series, 48 h
SF-295 CNS = system: SF-295 CNS
HOP-62 NSCLC = system: HOP-62 NSCLC
SK-OV-3 ovarian = system: SK-OV-3 ovarian
NCI-H460 lung = system: NCI-H460 lung
SN12C renal = system: SN12C renal
OVCAR-4 ovarian = system: OVCAR-4 ovarian
OVCAR-3 ovarian = system: OVCAR-3 ovarian
HCC-2998 colon = system: HCC-2998 colon
DU-145 prostate = system: DU-145 prostate

SMILES	TGI (SF-295 CNS)	TGI (HOP-62 NSCLC)	TGI (SK-OV-3 ovarian)	TGI (NCI-H460 lung)	TGI (SN12C renal)	TGI (OVCAR-4 ovarian)	TGI (OVCAR-3 ovarian)	TGI (HCC-2998 colon)	GI50 (HOP-62 NSCLC)	GI50 (NCI-H460 lung)	GI50 (SN12C renal)	GI50 (OVCAR-3 ovarian)	GI50 (DU-145 prostate)	TGI (DU-145 prostate)	GI50 (HCC-2998 colon)	GI50 (SF-295 CNS)	GI50 (SK-OV-3 ovarian)	GI50 (OVCAR-4 ovarian)
CNC1=C(C)C(=O)C(C)=C(C(C)(C)CC(=O)n2cc(F)c(=O)[nH]c2=O)C1=O	> 100 µM	> 53.8 µM	> 100 µM	> 100 µM	> 100 µM	> 100 µM	> 100 µM	> 100 µM										
O=C(O)c1cn(C2CC2)c2cc(N3CCN(S(=O)(=O)c4ccc(Cl)c(Cl)c4)CC3)c(F)cc2c1=O		> 100 µM		> 100 µM	> 100 µM		44 µM	> 100 µM	4.77 µM	3.66 µM	2.97 µM	3.9 µM	4.31 µM	> 100 µM	4.46 µM			
COc1cc2c(c3oc(-c4ccc5c(c4)OCO5)c(O)c(=O)c13)CCC(C)(C)O2	> 100 µM		> 100 µM		> 100 µM		> 100 µM	> 100 µM										
COc1cc(C)c(C(=O)/C=C/c2cc(OC)c(O)c(OC)c2)cc1O	> 100 µM	69.3 µM	85.1 µM	> 100 µM		49.3 µM	91.1 µM	30.5 µM										
C[C@@H]1CN(Cc2ccc(/C=C/c3n[nH]c4ccc5nc(-c6cn[nH]c6C(F)(F)F)c6c(c5c34)CCCC6)cc2)C[C@H](C)O1	18.1 µM	30.8 µM	17.3 µM	10.2 µM	14.9 µM	24.9 µM	14.6 µM	10.5 µM	4.6 µM	1.35 µM	2.46 µM	2.96 µM	4.53 µM	16.9 µM	2.57 µM	3.35 µM	3.64 µM	5.03 µM
NNC(=O)CC(=O)Nc1ccccc1F	> 100 µM	> 100 µM	> 100 µM	> 100 µM	> 100 µM	> 100 µM	> 100 µM	> 100 µM										
CC1=C(C(=O)Nc2ccccc2C)C(c2ccc(N(C)C)cc2)C(C(=O)Nc2ccccc2C)=C(C)N1	> 100 µM	> 100 µM	> 100 µM	> 100 µM	> 100 µM		> 100 µM	> 100 µM										
Cc1cc(N(CCCNc2ccnc3cc(Cl)ccc23)Cc2cccs2)nc(Cl)n1		29.6 µM	22.1 µM	18.3 µM	23.9 µM	14.6 µM	21.4 µM	17.8 µM	11.8 µM	4.03 µM	5.91 µM	6.43 µM	7.9 µM	23.1 µM	4.05 µM		7.05 µM	1.69 µM
COc1ccc2oc(-c3ccncc3)cc(=O)c2c1	> 100 µM	> 100 µM		> 100 µM	> 100 µM	> 100 µM	> 100 µM	> 100 µM										
CC1=C[C@H]2c3c(c(O)c(O)c4oc5cc(O)cc(O)c5c(=O)c34)[C@H](c3cc(O)c(O)c4oc5cc(O)cc(O)c5c(=O)c34)[C@H]2C(C)(C)C1	6.32 µM and 4.96 µM	4 µM and 6 µM	5.13 µM and 8.28 µM		6.88 µM and 8.24 µM	23.2 µM and 16.6 µM	4.02 µM and 7.54 µM	3.78 µM and 10 µM	1.53 µM		1.84 µM and 2.11 µM	1.7 µM and 2 µM	2.48 µM and 2.08 µM	11.4 µM and 12.8 µM	1.91 µM and 2.5 µM	1.98 µM and 1.63 µM	2.05 µM and 2.27 µM	3.92 µM and 2.9 µM
O=C1C[C@@H](c2ccccc2)NCCCCN(O)CCCN1	> 100 µM	> 100 µM	> 100 µM		> 100 µM	> 100 µM	> 100 µM	> 100 µM						> 100 µM				
O=C1Cc2ccccc2N1/N=C\c1ccc(O)cc1	> 100 µM	> 100 µM	> 100 µM	> 100 µM	> 100 µM	> 100 µM	> 100 µM	> 100 µM										
O=C1C2Cc3ccccc3CN2C(=O)N1CN1CCN(CN2C(=O)C3Cc4ccccc4CN3C2=O)CC1 (centres undefined)	> 100 µM	> 100 µM	> 100 µM	> 100 µM	> 100 µM		> 100 µM	> 100 µM										
COc1cc(C2c3cc4c(cc3C3OC(=O)C2C3CO)OCO4)cc(OC)c1OC (centres undefined)	0.166 µM	> 100 µM	0.0722 µM	> 100 µM	> 100 µM	> 100 µM		0.0899 µM	0.0339 µM	0.0299 µM	0.0457 µM		0.0285 µM		0.0297 µM	0.0182 µM	0.0217 µM	0.0446 µM
COc1cc(C/C=C/c2ccccc2)c(OC)cc1O				39.7 µM	34.5 µM	51.3 µM	51.1 µM	37.4 µM						37.3 µM				
CC1SC2=NC3=C(c4ccccc4C3=O)C(c3ccc(Br)cc3)N2C1=O (centres undefined)	> 100 µM	> 100 µM	> 100 µM	> 100 µM	> 100 µM	> 100 µM	> 100 µM	> 100 µM										
CSc1nc(Cl)c(Br)c(Nc2c[nH]c(=O)[nH]c2=O)n1	42.6 µM	53.5 µM	42.7 µM		35.3 µM	37.9 µM	40.7 µM	42.2 µM						49.9 µM				
